Assay results taken from paper PMC2639213 (Journal of medicinal chemistry, 2008).

Target: APSR (Mycobacterium tuberculosis, UniProt P9WIK3)
Assay: standard radioactive assay measuring APSR reduction of 35S-labeled APS substrate
Format: biochemical, M. tuberculosis
Conditions: for inhibition at 100 µM: read-out: inhibition of APSR activity, tested at 100 μM

Sequence of APSR (P9WIK3 whole entry): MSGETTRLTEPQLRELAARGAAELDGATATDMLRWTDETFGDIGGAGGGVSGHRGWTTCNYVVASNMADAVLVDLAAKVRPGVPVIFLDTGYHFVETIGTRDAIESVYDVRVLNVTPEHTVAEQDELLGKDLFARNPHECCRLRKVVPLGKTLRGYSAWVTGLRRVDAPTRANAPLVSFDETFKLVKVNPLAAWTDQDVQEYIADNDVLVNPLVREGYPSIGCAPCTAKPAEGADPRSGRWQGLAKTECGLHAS

## O=C1c2ccccc2-c2cc([N+](=O)[O-])c([N+](=O)[O-])cc21 [NSC 133896]
  inhibition at 100 µM: > 50%

## O=C1c2ccccc2-c2ccc([N+](=O)[O-])cc21 [2-nitro-9-fluorenone]
  activity against APSR (in words): neither 9-fluorenone nor 2-nitro-9-fluorenone, which are closely related to 133896, exhibited significant activity

## O=C1c2ccccc2-c2ccccc21 [9-fluorenone]
  activity against APSR (in words): neither 9-fluorenone nor 2-nitro-9-fluorenone, which are closely related to 133896, exhibited significant activity

## O=C(O)CCc1nnc2c3ccccc3c3ccccc3c2n1 [NSC 327704]
  inhibition at 100 µM: > 50%
